Results as given in US7091207B2, “Method of treating myocardial infarction with PDE-5 inhibitors” (Virginia Commonwealth University, priority 2002, dated 2006).

Assays:
[1] = tested on: mouse heart, global I-R injury; test: Isolated perfused mouse heart (Langendorff), 20 min global ischemia and 30 min reperfusion after in vivo treatment
Experimental: Adult male outbred ICR mice were supplied by Harlan Inc (Indianapolis, Ind.). Viagra pills (Pfizer Inc) were ground into powder and dissolved in saline. The drug solution was filtered (0.45-μm pore size) before intraperitoneal injection. 1400W, an iNOS inhibitor, was obtained from Alexis. We used an isolated perfused mouse heart model subjected to 20 minutes of global ischemia and 30 minutes of reperfusion (Langendorff mode). Myocardial I-R injury was assessed by measuring infarct size, contractile function, and coronary flow as described previously (Xi, 1999). Twenty-eight mice were randomized into the following 4 groups: (n=6 to 9 per group): (1) saline (0.15 mL IP), (2) sildenafil (0.7 mg/kg IP, equivalent to 50 mg Viagra pill used for patients with erectile dysfunction, given 24 hours before I-R), (3) sildenafil+1400W (10 mg/kg IP, 14 given 30 minutes before I-R), and (4) saline+1400W. Measurement of NOS Isoforms Mice were treated with sildenafil (0.7 mg/kg IP), and their hearts were removed at 15, 30, and 45 minutes and 1, 2, 3, 4, and 24 hours after injection (n=3 per group). Three nontreated hearts were used as controls. Tissue samples were ground under liquid nitrogen and homogenized with TRI Reagent (Molecular Research Center) for extracting total RNA, which was reverse-transcribed into cDNA at 50° C. for 30 minutes using a OneStep reverse transcription (RT)-polymerase chain reaction (PCR) kit from Qiagen. The oligonucleotide primers were synthesized on the basis of published sequences for murine iNOS, eNOS, and GAPDH15 (Integrated DNA Technology). The RT-PCR products were electrophoresed on 1.5% Trisacetate-EDTA agarose gel. The target bands were identified on the basis of their specific size using DNA standards. iNOS and eNOS proteins were measured by Western blots as described previously. 13 In brief, triplicate heart samples were collected 24 hours after saline or sildenafil injection and homogenized in ice-cold RIPA buffer (Upstate Biotechnology). The homogenate was centrifuged at 10,000 g for 10 minutes at 4° C., and supernatant was recovered as the total cellular protein. Total protein (60 μg) from each sample was separated by SDS-PAGE on 10% acrylamide gels, transferred to a polyvinylidine difluoride membrane, and then blocked with 5% nonfat dry milk in Tris-buffered saline. The membrane was subsequently incubated with a rabbit polyclonal antibody (dilution 1:500, Santa Cruz) reacting specifically to iNOS, eNOS, or actin. The secondary antibody was a horseradish peroxidase-conjugated anti-rabbit IgG (1:1000 dilution, Amersham). The membranes were developed using enhanced chemiluminescence and exposed to x-ray film. The mRNA and protein expression were quantified by scanning each of the RT-PCR or Western blot band using a densitometer (Bioquant 98). […]

eNOS = test: Cardiac eNOS mRNA (RT-PCR) and protein (Western blot) expression after treatment; type: in vivo, mouse; conditions: 0.7 mg/kg IP
Experimental: Adult male outbred ICR mice were supplied by Harlan Inc (Indianapolis, Ind.). Viagra pills (Pfizer Inc) were ground into powder and dissolved in saline. The drug solution was filtered (0.45-μm pore size) before intraperitoneal injection. 1400W, an iNOS inhibitor, was obtained from Alexis. We used an isolated perfused mouse heart model subjected to 20 minutes of global ischemia and 30 minutes of reperfusion (Langendorff mode). Myocardial I-R injury was assessed by measuring infarct size, contractile function, and coronary flow as described previously (Xi, 1999). Twenty-eight mice were randomized into the following 4 groups: (n=6 to 9 per group): (1) saline (0.15 mL IP), (2) sildenafil (0.7 mg/kg IP, equivalent to 50 mg Viagra pill used for patients with erectile dysfunction, given 24 hours before I-R), (3) sildenafil+1400W (10 mg/kg IP, 14 given 30 minutes before I-R), and (4) saline+1400W. Measurement of NOS Isoforms Mice were treated with sildenafil (0.7 mg/kg IP), and their hearts were removed at 15, 30, and 45 minutes and 1, 2, 3, 4, and 24 hours after injection (n=3 per group). […] The target bands were identified on the basis of their specific size using DNA standards. iNOS and eNOS proteins were measured by Western blots as described previously. […] The mRNA and protein expression were quantified by scanning each of the RT-PCR or Western blot band using a densitometer (Bioquant 98). […]

[2] = tested on: nNOS, iNOS and eNOS knockout mouse hearts; test: Delayed cardioprotection in NOS gene-knockout mice, isolated perfused heart, 30 min global ischemia and 60 min reperfusion; type: in vivo; conditions: iNOS-KO mice
[3] = tested on: cardiac myocytes from adult mice; test: Simulated ischemia/reoxygenation in isolated cardiac myocytes (trypan blue, TUNEL); type: cell-based; conditions: 10 μM, 40 min simulated ischemia
Experimental: The ability of sildenafil to confer protection against necrosis and apoptosis in cardiac myocytes was tested. Freshly isolated myocytes from adult mice were exposed to simulated ischemia with or without sildenafil (10 μM) for 40 minutes followed by reoxygenation for 60 minutes. The ischemic buffer contained (in mM): 118 NaCl, 24 NaHCO3, 1.0 NaH2PO4, 2.5 CaCl2-2H2O, 1.2 MgCl2, 20 sodium lactate, 16 KCl, 10 2-deoxyglucose (pH adjusted to 6.2). At the end of this protocol, necrotic cell death was evaluated by uptake of trypan blue using a phase contrast microscope. To determine apoptosis, the myocytes were reoxygenated for an extended period of 18 hrs after incubating them in the ischemic buffer for 40 minutes. Apoptosis was determined using the terminal deoxynucleotide nick-end labeling (TUNEL) assay which detects cells undergoing programmed cell death due to DNA fragmentation.

[4] = tested on: doxorubicin-induced cardiotoxicity in mice; test: Chronic mouse model of doxorubicin-induced cardiotoxicity; type: in vivo; conditions: DOX-treated mice; sildenafil citrate 0.7 mg/kg ip
Experimental: Mice are treated with doxorubicin in the presence or absence of clinically relevant doses of sildenafil citrate, and the left ventricular systolic function is correlateed using 2-dimensional (2D) contrast echocardiography. The actions of dosing sildenafil citrate 24 hours prior to each dose of doxorubicin (Total of 3 doses) versus dosing sildenafil citrate daily for 28 days is tested. Histological examination is performed to assess the ultrastructural alterations including nuclear condensation with coarse chromatin clumping, sarcoplasmic reticulum vacuolization, and mitochondrial fine structure disruption which are known to occur widely in doxorubicin-treated cardiomyocytes. […] The role of sildenafil in attenuation of DOX-induced apoptosis and attenuation of mitochondrial transition pore opening is assessed. The contribution of […] channel opening in rescuing DOX-induced cell death in sildenafil treated mice is determined by using 5-hydroxydecanoate, a selective blocker of the […] channel.
Materials and methods. […] Weight of all animals is measured weekly and gross heart weight is measured prior to freezing in liquid nitrogen. […] Specifically, nuclear chromatinmargination, mitochondrial swelling, cristae disappearance/matrix clearing, presence or absence of contractile apparatus disarray, and sarcoplasmic reticulum vacuolization is measured.

[5] = 0.7 mg/kg IP 24 hours before I-R

`CCCc1nn(C)c2c(=O)[nH]c(-c3cc(S(=O)(=O)N4CCN(C)CC4)ccc3OCC)nc12` [sildenafil] was tested, and the “preischemic or postischemic coronary flow” value [1, 5] was “did not alter”, the “ventricular contractile function (stunning)” value [1, 5] was “not associated with compromised ventricular contractile function” and the infarct size ([1]; sildenafil 0.7 mg/kg IP 24 hours before I-R) was 6.9±1.2%. For the same molecule, the “eNOS mRNA and protein expression” value (eNOS) was “increase”, the “time of peak eNOS mRNA level” value (eNOS) was 45 min and the delayed cardioprotection [2] was “absent”. For the same molecule, the “necrotic cell death by trypan blue uptake” value ([3]; 60 min reoxygenation) was “significantly more blue (i.e. viable) cells”, the “apoptosis by TUNEL staining” value ([3]; 18 hrs reoxygenation) was “rescues myocytes against apoptotic cell death” and the LV function [4] was “improves LV function”. The “ultrastructural damage to the heart” value [4] was “reduces ultrastructural damage to the heart”.
